Like-named read-outs stand apart in the source and are kept apart here.
Target: T1, STAT6 (Homo sapiens, UniProt P42226)
T1 construct: endogenous in cells; host or cells: MOLM-16, KU-812, SKNO1, MB231, L1236
T1 sequence (P42226 1-847): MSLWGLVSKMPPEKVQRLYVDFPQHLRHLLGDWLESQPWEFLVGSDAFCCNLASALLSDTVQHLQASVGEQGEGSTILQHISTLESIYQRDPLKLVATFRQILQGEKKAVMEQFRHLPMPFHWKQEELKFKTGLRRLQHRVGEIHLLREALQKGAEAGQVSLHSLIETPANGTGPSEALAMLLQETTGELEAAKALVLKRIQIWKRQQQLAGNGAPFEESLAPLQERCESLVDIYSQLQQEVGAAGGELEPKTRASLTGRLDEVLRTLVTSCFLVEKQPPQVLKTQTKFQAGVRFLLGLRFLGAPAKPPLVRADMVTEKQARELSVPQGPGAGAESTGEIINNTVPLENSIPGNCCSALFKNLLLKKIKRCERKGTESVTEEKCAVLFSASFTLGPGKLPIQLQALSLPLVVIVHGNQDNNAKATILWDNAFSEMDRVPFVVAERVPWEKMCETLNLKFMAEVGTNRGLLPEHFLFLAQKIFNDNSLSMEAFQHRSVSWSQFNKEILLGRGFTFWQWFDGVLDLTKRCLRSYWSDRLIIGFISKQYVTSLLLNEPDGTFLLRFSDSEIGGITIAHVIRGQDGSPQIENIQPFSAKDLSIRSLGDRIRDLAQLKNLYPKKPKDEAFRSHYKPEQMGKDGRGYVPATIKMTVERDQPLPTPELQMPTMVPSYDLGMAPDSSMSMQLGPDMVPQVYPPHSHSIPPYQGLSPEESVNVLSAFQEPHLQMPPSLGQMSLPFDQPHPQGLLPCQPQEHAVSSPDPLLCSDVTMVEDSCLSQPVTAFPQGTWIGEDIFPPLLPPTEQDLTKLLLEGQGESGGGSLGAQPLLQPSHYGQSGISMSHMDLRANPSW
Assay: Immunoblotting (Western blot) analysis of STAT6 degradation efficiency of degraders in treated cells
Assay type: cell-based
Outline: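 Read-out: fluorescent IRDye 680RD/800CW secondaries imaged on an infrared scanner, with band intensities quantified by densitometry and GAPDH serving as loading control. Samples were RIPA lysates, BCA-normalised, from ~1 million treated cells.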

[1] = L1236 cells, read-out: DC50 S6 L1236
[2] = MOLM-16 cells, class symbols, read-out: DC50 S6 MOLM-16

DC50 (MB231 cells, read-out: DC50 S6 MB231) [µM] | Structure (SMILES) | DC50 [1] [µM] | DC50 [2] [µM]
 | Cc1ncsc1-c1ccc([C@H](C)NC(=O)[C@@H]2C[C@@H](O)CN2C(=O)[C@@H](NC(=O)CCCCNC(=O)CC(=O)N2CCN(C(=O)[C@@H](NC(=O)c3cc4cc(C(F)(F)P(=O)(O)O)ccc4s3)C(C)(C)C)[C@H](C(=O)N3CCC[C@H](c4ccccc4)C3)C2)C(C)(C)C)cc1 [Compound 455, (difluoro(2-(((S)-1-((S)-4-(3-((5-(((S)-1-((2S,4R)-4-hydroxy-2-(((S)-1-(4-(4-methylthiazol-5-yl)phenyl)ethyl)carbamoyl)pyrrolidin-1-yl)-3,3-dimethyl-1-oxobutan-2-yl)amino)-5-oxopentyl)amino)-3-oxopropanoyl)-2-((R)-3-phenylpiperidine-1-carbonyl)piperazin-1-yl)-3,3-dimethyl-1-oxobutan-2-yl)carbamoyl)benzo[b]thiophen-5-yl)methyl)phosphonic acid] | > 10 | > 10
 | CC(C)(C)[C@H](NC(=O)c1cc2cc(C(F)(F)P(=O)(O)O)ccc2s1)C(=O)N1C[C@@H](NC(=O)CCCCCC#Cc2cccc3c2CN(C2CCC(=O)NC2=O)C3=O)C[C@H]1C(=O)N1CCO[C@H](c2ccccc2)C1 (stereo partly drawn) [Compound 565, ((2-(((2S)-1-((2S,4S)-4-(8-(2-(2,6-dioxopiperidin-3-yl)-1-oxoisoindolin-4-yl)oct-7-ynamido)-2-((R)-2-phenylmorpholine-4-carbonyl)pyrrolidin-1-yl)-3,3-dimethyl-1-oxobutan-2-yl)carbamoyl)benzo[b]thiophen-5-yl)difluoromethyl)phosphonic acid] | > 10 | > 10
 | Cc1ncsc1-c1ccc([C@H](C)NC(=O)[C@@H]2C[C@@H](O)CN2C(=O)[C@@H](NC(=O)CCCNC(=O)CO[C@H]2C[C@@H](C(=O)N3CCO[C@H](c4ccccc4)C3)N(C(=O)[C@@H](NC(=O)c3cc4cc(C(F)(F)P(=O)(O)O)ccc4s3)C(C)(C)C)C2)C(C)(C)C)cc1 [Compound 427, (difluoro(2-(((S)-1-((2S,4S)-4-(2-((4-(((S)-1-((2S,4R)-4-hydroxy-2-(((S)-1-(4-(4-methylthiazol-5-yl)phenyl)ethyl)carbamoyl)pyrrolidin-1-yl)-3,3-dimethyl-1-oxobutan-2-yl)amino)-4-oxobutyl)amino)-2-oxoethoxy)-2-((R)-2-phenylmorpholine-4-carbonyl)pyrrolidin-1-yl)-3,3-dimethyl-1-oxobutan-2-yl)carbamoyl)benzo[b]thiophen-5-yl)methyl)phosphonic acid] | > 10 | > 10
 | CC(C)(C)[C@H](NC(=O)c1cc2cc(C(F)(F)P(=O)(O)O)ccc2s1)C(=O)N1C[C@@H](OCC(=O)NCCCC#Cc2cccc3c2C(=O)N(C2CCC(=O)NC2=O)C3=O)C[C@H]1C(=O)N1CCO[C@H](c2ccccc2)C1 (stereo partly drawn) [Compound 483, ((2-(((2S)-1-((2S,4S)-4-(2-((5-(2-(2,6-dioxopiperidin-3-yl)-1,3-dioxoisoindolin-4-yl)pent-4-yn-1-yl)amino)-2-oxoethoxy)-2-((R)-2-phenylmorpholine-4-carbonyl)pyrrolidin-1-yl)-3,3-dimethyl-1-oxobutan-2-yl)carbamoyl)benzo[b]thiophen-5-yl)difluoromethyl)phosphonic acid] |  | 1 to 10
 | CC(C)(C)[C@H](NC(=O)c1cc2cc(C(F)(F)P(=O)(O)O)ccc2s1)C(=O)N1CCN(C(=O)CC(=O)NCCCCCCCCCC#Cc2ccc3c(c2)C(=O)N(C2CCC(=O)NC2=O)C3=O)C[C@H]1C(=O)N1CCC[C@H](c2ccccc2)C1 (stereo partly drawn) [Compound 534, ((2-(((2S)-1-((2S)-4-(3-((11-(2-(2,6-dioxopiperidin-3-yl)-1,3-dioxoisoindolin-5-yl)undec-10-yn-1-yl)amino)-3-oxopropanoyl)-2-((R)-3-phenylpiperidine-1-carbonyl)piperazin-1-yl)-3,3-dimethyl-1-oxobutan-2-yl)carbamoyl)benzo[b]thiophen-5-yl)difluoromethyl)phosphonic acid] |  | > 10
 | CC(C)(C)[C@H](NC(=O)c1cc2cc(C(F)(F)P(=O)(O)O)ccc2s1)C(=O)N1C[C@@H](OCC(=O)NCCCCC#Cc2ccc3c(c2)C(=O)N(C2CCC(=O)NC2=O)C3=O)C[C@H]1C(=O)N1CCO[C@H](c2ccccc2)C1 (stereo partly drawn) [Compound 486, ((2-(((2S)-1-((2S,4S)-4-(2-((6-(2-(2,6-dioxopiperidin-3-yl)-1,3-dioxoisoindolin-5-yl)hex-5-yn-1-yl)amino)-2-oxoethoxy)-2-((R)-2-phenylmorpholine-4-carbonyl)pyrrolidin-1-yl)-3,3-dimethyl-1-oxobutan-2-yl)carbamoyl)benzo[b]thiophen-5-yl)difluoromethyl)phosphonic acid] |  | > 10
> 10 | CC(C)(C)[C@H](NC(=O)c1cc2cc(C(F)(F)P(=O)(O)O)ccc2s1)C(=O)N1CCC[C@H]1C(=O)N(CCC(=O)NCCCCCCCCCC#Cc1cccc2c1CN(C1CCC(=O)NC1=O)C2=O)c1ccc(Br)cc1 (stereo partly drawn) [Compound 402, ((2-(((2S)-1-((2S)-2-((4-bromophenyl)(3-((11-(2-(2,6-dioxopiperidin-3-yl)-1-oxoisoindolin-4-yl)undec-10-yn-1-yl)amino)-3-oxopropyl)carbamoyl)pyrrolidin-1-yl)-3,3-dimethyl-1-oxobutan-2-yl)carbamoyl)benzo[b]thiophen-5-yl)difluoromethyl)phosphonic acid] |  | 
 | O=C1CCC(N2Cc3c(C#CCCCCCC(=O)N4CC[C@H]5CC[C@@H](C(=O)N6CC[C@@H](c7ccccc7)C6)N5C(=O)[C@@H](NC(=O)c5cc6cc(C(F)(F)P(=O)(O)O)ccc6s5)C4)cccc3C2=O)C(=O)N1 (stereo partly drawn) [Compound 563, ((2-(((5S,8S,10aR)-3-(8-(2-(2,6-dioxopiperidin-3-yl)-1-oxoisoindolin-4-yl)oct-7-ynoyl)-6-oxo-8-((S)-3-phenylpyrrolidine-1-carbonyl)decahydropyrrolo[1,2-a][1,5]diazocin-5-yl)carbamoyl)benzo[b]thiophen-5-yl)difluoromethyl)phosphonic acid] | > 10 | > 10
 | CC(C)(C)[C@H](NC(=O)c1cc2cc(C(F)(F)P(=O)(O)O)ccc2s1)C(=O)N1Cc2cc(OCC(=O)NCCC#Cc3ccc4c(c3)C(=O)N(C3CCC(=O)NC3=O)C4=O)ccc2C[C@H]1C(=O)N1CCC[C@H](c2ccccc2)C1 (stereo partly drawn) [Compound 552, ((2-(((2S)-1-((3S)-7-(2-((4-(2-(2,6-dioxopiperidin-3-yl)-1,3-dioxoisoindolin-5-yl)but-3-yn-1-yl)amino)-2-oxoethoxy)-3-((R)-3-phenylpiperidine-1-carbonyl)-3,4-dihydroisoquinolin-2(1H)-yl)-3,3-dimethyl-1-oxobutan-2-yl)carbamoyl)benzo[b]thiophen-5-yl)difluoromethyl)phosphonic acid] |  | > 10
 | CC(C)(C)[C@H](NC(=O)c1cc2cc(C(F)(F)P(=O)(O)O)ccc2s1)C(=O)N1CCN(C(=O)CC(=O)NCCCC#Cc2ccc3c(c2)C(=O)N(C2CCC(=O)NC2=O)C3=O)C[C@H]1C(=O)N1CCC[C@H](c2ccccc2)C1 (stereo partly drawn) [Compound 526, ((2-(((2S)-1-((2S)-4-(3-((5-(2-(2,6-dioxopiperidin-3-yl)-1,3-dioxoisoindolin-5-yl)pent-4-yn-1-yl)amino)-3-oxopropanoyl)-2-((R)-3-phenylpiperidine-1-carbonyl)piperazin-1-yl)-3,3-dimethyl-1-oxobutan-2-yl)carbamoyl)benzo[b]thiophen-5-yl)difluoromethyl)phosphonic acid] |  | > 10
 | CC(C)(C)[C@H](NC(=O)c1cc2cc(C(F)(F)P(=O)(O)O)ccc2s1)C(=O)N1CCN(C(=O)CC(=O)NCCCCCC#Cc2cccc3c2C(=O)N(C2CCC(=O)NC2=O)C3=O)C[C@H]1C(=O)N1CCO[C@H](c2ccccc2)C1 (stereo partly drawn) [Compound 515, ((2-(((2S)-1-((2S)-4-(3-((7-(2-(2,6-dioxopiperidin-3-yl)-1,3-dioxoisoindolin-4-yl)hept-6-yn-1-yl)amino)-3-oxopropanoyl)-2-((R)-2-phenylmorpholine-4-carbonyl)piperazin-1-yl)-3,3-dimethyl-1-oxobutan-2-yl)carbamoyl)benzo[b]thiophen-5-yl)difluoromethyl)phosphonic acid] |  | > 10
 | CC(C)(C)[C@H](NC(=O)c1cc2cc(C(F)(F)P(=O)(O)O)ccc2s1)C(=O)N1CCN(C(=O)CC(=O)NCCCC#Cc2cccc3c2C(=O)N(C2CCC(=O)NC2=O)C3=O)C[C@H]1C(=O)N1CCO[C@H](c2ccccc2)C1 (stereo partly drawn) [Compound 511, ((2-(((2S)-1-((2S)-4-(3-((5-(2-(2,6-dioxopiperidin-3-yl)-1,3-dioxoisoindolin-4-yl)pent-4-yn-1-yl)amino)-3-oxopropanoyl)-2-((R)-2-phenylmorpholine-4-carbonyl)piperazin-1-yl)-3,3-dimethyl-1-oxobutan-2-yl)carbamoyl)benzo[b]thiophen-5-yl)difluoromethyl)phosphonic acid] |  | 1 to 10
